Test system: Leishmania donovani
Assay: Bioassay against Leishmania donovani
Type: cell-based
From the text: Marine invertebrates from Antarctica have been investigated for their potential natural product chemistry. Often sessile, these organisms must develop chemical protective mechanisms to survive and defend themselves against predators. The biodiversity of these organisms is of particular interest due to the extremely low temperatures and the circumpolar current around the Antarctic continent serving as an ecological isolating shield. The chemodiversity that emanates from these organisms can be a significant source of chemistry to be further developed into new drugs. The chemical investigation of an undescribed Gersemia sp. Antarctic coral has led to the isolation of two different kinds of bioactive compounds. After lyophilization of the organism, two different extractions were performed: the first one used a methylene chloride: methanol (1:1) solvent mixture, and the second one used methylene chloride only as solvent in a Soxhlet extraction. […] One and two-dimensional nuclear magnetic resonance, mass spectrometry, X-ray crystallography, and circular dichroism were the methods performed to elucidate and confirm the structures. Furthermore, biological testing against Leishmania sp. and ESKAPE pathogens, Zika virus, Clostridium difficile, and HeLa cancer cells were performed.
Table 1 details the bioactivity of two Alcyopterosins and ACDL-21.

IC50: 3.1 µM
SMILES: Cc1cc2c(c3c1[C@H](CO[N+](=O)[O-])OC3=O)CC(C)(C)C2 [Alcyopterosin E (2), alcyopterosin E]
